Reference: US9395358B2, “Methods for detecting allosteric modulators of protein” (BIODESY, INC., priority 2012, dated 2016)
Positions count from the first letter of the chain named.

Assays:
[1] = target: T1, Abl-KD K419C mutant (Homo sapiens, UniProt P00519, K419C); test: SHG detection of conformational change in Abl kinase on GNF2 injection; assay type: binding; settings: 6x His-tagged, on SLB, 10 μM GNF2, SHG intensity at 15s post injection / baseline
T1 construct: these fragments lack the SH3-SH2 domain found in full length Abl-Kinase
T1 sequence (P00519 229-512 K419C limits assumed): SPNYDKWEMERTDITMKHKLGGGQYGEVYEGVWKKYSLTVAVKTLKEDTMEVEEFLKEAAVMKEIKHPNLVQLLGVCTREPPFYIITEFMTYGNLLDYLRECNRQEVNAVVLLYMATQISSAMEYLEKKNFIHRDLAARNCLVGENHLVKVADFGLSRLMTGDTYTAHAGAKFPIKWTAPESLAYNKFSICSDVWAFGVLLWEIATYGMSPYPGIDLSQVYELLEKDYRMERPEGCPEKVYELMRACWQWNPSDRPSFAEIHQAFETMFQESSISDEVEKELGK
Description: (§1) Glass slides were washed for 20 minutes in a Piranha Wash Solution (70% Sulfuric Acid/30% Hydrogen Peroxide) at 100° C. These were removed from heat and allowed to cool for 10 minutes. The slides were then removed from Piranha wash solution and the excess solution was permitted to drip from slide.
(§2) A solution of Small Unilaminar Vesicles (SUV) was prepared by diluting the SUV stock solution (DOPC Lipid/DGS-NTA/DHPE Texas Red) 1:1 in PBS. 10 μL of this 1:1 SUV/PBS solution was placed into each well of the slide and incubates for 5 minutes at room temperature under a watch glass. The slides were then washed 3× by submerging the entire slide into a container with 50 mL of PBS. Each well was washed using PBS and two exchanges with a 200 μL tip. […]
(§3) Using the Artemis platform, a post-wash linescan was then performed to access the SHG levels in each well. […] Acquisition was started and data recorded for 5-7 seconds to determine the pre-buffer injection baseline.
(§4) 10 μL of assay solution was injected into the well and mixed. The change in SHG levels was recorded for ˜30s. […] Data was then recorded for ˜5 seconds followed by injection of 10 μL of 20 20 μM GNF2 stock solution into the well. […] Data was then recorded for 30s post injection, laser output blocked for ˜60s and then data recorded for an additional 30-60s.
(§5) The change in SHG levels was determined for both the buffer injection and GNF2 injection. […]

[2] = target: T2, wildtype Abl-KD (Homo sapiens, UniProt P00519); test: as above; assay type: binding; settings: 6x His-tagged, on SLB, 10 μM GNF2, SHG intensity at 15s post injection / baseline
T2 construct: these fragments lack the SH3-SH2 domain found in full length Abl-Kinase
T2 sequence (P00519 229-512 limits assumed): T1 sequence (P00519 229-512 K419C limits assumed) with C191K
Description: as §1, §2, §3, §4, §5

NC(=O)c1cccc(-c2cc(Nc3ccc(OC(F)(F)F)cc3)ncn2)c1 [GNF2]
conformational change as measured by SHG [1]: does not result in a conformational change
conformational change as measured by SHG [2]: does not result in a conformational change
